Reference: ChEMBL document CHEMBL3632615, “N(6)-(2-Hydroxyethyl)adenosine in the Medicinal Mushroom Cordyceps cicadae Attenuates Lipopolysaccharide-Stimulated Pro-inflammatory Responses by Suppressing TLR4-Mediated NF-κB Signaling Pathways” (J Nat Prod, 2015)
The source made the active and inactive calls. The calls are words filed in the database; no cut-off is given here.

Experiments:
Type in all cases: cell-based
[1] = target: T1, Toll-like receptor 4 (Mus musculus) (UniProt Q9QUK6); test: Inhibition of TLR4-mediated NF-kappaB signaling pathway in BALB/c mouse RAW264.7 cells assessed as suppression of LPS-stimulated PGE2 production at 0.5 to 5 ug/ml preincubated for 1 hr followed by LPS challenge measured after 6 hrs by immunoblot analysis in presence of cordycepin
T1 sequence (whole entry): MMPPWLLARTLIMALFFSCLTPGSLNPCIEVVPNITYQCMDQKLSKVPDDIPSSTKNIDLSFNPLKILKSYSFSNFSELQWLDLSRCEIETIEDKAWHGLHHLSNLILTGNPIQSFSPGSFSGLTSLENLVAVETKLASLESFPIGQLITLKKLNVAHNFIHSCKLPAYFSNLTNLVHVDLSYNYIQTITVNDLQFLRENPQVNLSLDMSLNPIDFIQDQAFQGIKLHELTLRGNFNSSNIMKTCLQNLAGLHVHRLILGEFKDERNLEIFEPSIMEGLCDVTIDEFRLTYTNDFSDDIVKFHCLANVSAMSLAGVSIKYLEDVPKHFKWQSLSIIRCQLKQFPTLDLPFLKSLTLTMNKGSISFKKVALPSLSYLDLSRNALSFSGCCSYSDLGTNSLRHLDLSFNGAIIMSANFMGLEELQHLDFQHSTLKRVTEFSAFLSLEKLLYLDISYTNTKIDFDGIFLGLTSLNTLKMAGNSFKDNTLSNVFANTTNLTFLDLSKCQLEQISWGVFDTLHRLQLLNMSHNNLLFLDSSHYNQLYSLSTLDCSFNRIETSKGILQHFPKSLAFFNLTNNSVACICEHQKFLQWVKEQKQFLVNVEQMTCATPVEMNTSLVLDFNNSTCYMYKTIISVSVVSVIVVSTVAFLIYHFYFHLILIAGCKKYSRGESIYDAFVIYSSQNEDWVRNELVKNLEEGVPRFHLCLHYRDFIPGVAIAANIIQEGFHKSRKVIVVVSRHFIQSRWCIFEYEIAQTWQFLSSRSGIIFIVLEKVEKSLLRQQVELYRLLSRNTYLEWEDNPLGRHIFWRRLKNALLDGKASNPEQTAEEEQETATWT

[2] = target: T1, Toll-like receptor 4 (Mus musculus); test: Inhibition of TLR4-mediated NF-kappaB signaling pathway in BALB/c mouse RAW264.7 cells assessed as suppression of LPS-stimulated TNF-alpha production at 2.5 to 10 ug/ml preincubated for 1 hr followed by LPS challenge measured after 6 hrs by immunoblot analysis
[3] = target: T1, Toll-like receptor 4 (Mus musculus); test: Inhibition of TLR4-mediated NF-kappaB signaling pathway in BALB/c mouse RAW264.7 cells assessed as suppression of LPS-stimulated PGE2 production at 0.5 to 5 ug/ml preincubated for 1 hr followed by LPS challenge measured after 6 hrs by immunoblot analysis in presence of HEA
[4] = target: T1, Toll-like receptor 4 (Mus musculus); test: Inhibition of TLR4-mediated NF-kappaB signaling pathway in BALB/c mouse RAW264.7 cells assessed as suppression of LPS-stimulated TNF-alpha production at 0.5 to 5 ug/ml preincubated for 1 hr followed by LPS challenge measured after 6 hrs by immunoblot analysis in presence of cordycepin
[5] = target: T1, Toll-like receptor 4 (Mus musculus); test: Inhibition of TLR4-mediated NF-kappaB signaling pathway in BALB/c mouse RAW264.7 cells assessed as suppression of LPS-stimulated PGE2 production at 2.5 to 10 ug/ml preincubated for 1 hr followed by LPS challenge measured after 6 hrs by immunoblot analysis
[6] = target: T1, Toll-like receptor 4 (Mus musculus); test: Inhibition of TLR4-mediated NF-kappaB signaling pathway in BALB/c mouse RAW264.7 cells assessed as suppression of LPS-stimulated TNF-alpha production at 0.5 to 5 ug/ml preincubated for 1 hr followed by LPS challenge measured after 6 hrs by immunoblot analysis in presence of HEA
[7] = target: T1, Toll-like receptor 4 (Mus musculus); test: Inhibition of TLR4-mediated NF-kappaB signaling pathway in BALB/c mouse RAW264.7 cells assessed as suppression of LPS-stimulated TNF-alpha production at 1 to 10 ug/ml preincubated for 1 hr followed by LPS challenge measured after 6 hrs by immunoblot analysis
[8] = target: T1, Toll-like receptor 4 (Mus musculus); test: Inhibition of TLR4-mediated NF-kappaB signaling pathway in BALB/c mouse RAW264.7 cells assessed as suppression of LPS-stimulated PGE2 production at 0.5 to 5 ug/ml preincubated for 1 hr followed by LPS challenge measured after 6 hrs by immunoblot analysis in presence of adenosine
[9] = target: T1, Toll-like receptor 4 (Mus musculus); test: Inhibition of TLR4-mediated NF-kappaB signaling pathway in BALB/c mouse RAW264.7 cells assessed as suppression of LPS-stimulated PGE2 production at 1 to 10 ug/ml preincubated for 1 hr followed by LPS challenge measured after 6 hrs by immunoblot analysis
[10] = target: T1, Toll-like receptor 4 (Mus musculus); test: Inhibition of TLR4-mediated NF-kappaB signaling pathway in BALB/c mouse RAW264.7 cells assessed as suppression of LPS-stimulated TNF-alpha production at 0.5 to 5 ug/ml preincubated for 1 hr followed by LPS challenge measured after 6 hrs by immunoblot analysis in presence of adenosine

Nc1ncnc2c1ncn2[C@@H]1O[C@H](CO)[C@@H](O)[C@H]1O
inhibition [1]: inactive
inhibition [2]: Active
inhibition [3]: inactive
inhibition [4]: inactive
inhibition [5]: Active
inhibition [6]: inactive

Nc1ncnc2c1ncn2[C@@H]1O[C@H](CO)C[C@H]1O
inhibition [7]: Active
inhibition [3]: inactive
inhibition [8]: inactive
inhibition [9]: Active
inhibition [6]: inactive
inhibition [10]: inactive
